# Patent publication US8846675B2, “N-linked heterocyclic receptor agonists for the treatment of diabetes and metabolic disorders” (Cymabay Therapeutics, Inc., priority 2007, dated 2014)
# Molecular target: T1, IC-GPCR2 (Homo sapiens, UniProt Q8TDV5)
# T1 construct: expressed in transfected cells
# T1 sequence (Q8TDV5 1-335 S309L): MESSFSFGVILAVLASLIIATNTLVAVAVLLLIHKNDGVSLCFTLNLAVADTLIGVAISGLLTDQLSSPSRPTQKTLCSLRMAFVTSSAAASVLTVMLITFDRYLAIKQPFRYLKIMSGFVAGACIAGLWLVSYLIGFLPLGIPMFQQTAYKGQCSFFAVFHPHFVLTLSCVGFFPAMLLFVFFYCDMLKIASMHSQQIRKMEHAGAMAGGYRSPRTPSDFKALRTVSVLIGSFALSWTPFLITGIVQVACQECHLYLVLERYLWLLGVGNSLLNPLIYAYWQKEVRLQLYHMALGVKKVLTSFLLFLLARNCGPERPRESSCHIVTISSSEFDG
# Assay: Stimulation of cAMP in CHO cell line stably expressing IC-GPCR2 (HTRF cAMP dynamic kit)
# Assay type: cell-based
# Conditions: 3 μM compound; relative to maximal activity of 5-Ethyl-2-{4-[4-(4-tetrazol-1-yl-phenoxymethyl)-thiazol-2-yl]-piperidin-1-yl}-pyrimidine (=100%); IC-GPCR2 stably expressing CHO cells, 30 minutes
# Protocol: This assay was developed using a stable cell line expressing IC-GPCR-2, generated as follows. IC-GPCR2 (Seq. ID No. 1) was cloned into Gateway pDEST 40vector (Invitrogen), using the Gateway cloning system (invitrogen) according to the manufacturers instructions. A stable cell line was generated by transfecting a 10 cm plate of CHO cells (source) with 8 ug of this construct using Transit-CHO transfection kit (Mirus). CHO cells were plated the day prior to transfection at a density of 3,000,000 cells/plate. Clones were selected using the antibiotic G418 at 500 ug/ml. 23 clones were picked and assayed for the expression of the receptor by measuring changes in intracellular cAMP levels in response to an IC-GPCR2 agonist (Arena 51).
# To measure cAMP activity in response to IC-GPCR2 agonist, the clones were plated in 96 well plates at 17500 cells per well. On the day after plating, cells were incubated with the IC-CPCR2 agonist at […] for 30 minutes in Ham's F12 Media (Gibco) with 0.04% DMSO. cAMP was measured using the cAMP dynamic kit from C is Bio (Bedford, Mass.) according to the manufacturers instructions. Briefly, cells were lysed, and cAMP levels determined by competitive immunoassay using D2 labeled cAMP, and europium cryptate tagged anti cAMP antibody. When in close proximity, the D2 and europium cryptate undergo fluorescence resonance energy transfer (FRET), which is measured as a fluorescence ratio (665 nm/620 nm). Unlabelled cAMP in the cell lysatc competed with the D2 labeled cAMP for the europium crypate labeled antibody. The resulting decrease in FRET signal corresponded to intracellular cAMP levels. Fluorescence was read on a BMG Labtech PHERAstar, software version 1.50.
# The clone with the greatest response to IC-GPCR2 agonist was selected for the screening assay.
# Compounds were dissolved in 100% DMSO to a concentration of […] to provide stock solutions. To determine activity against IC-GPCR2, compounds were incubated with IC-GPCR2 stably expressing cells (described above), at 6-8 concentrations ranging from 0.00003 to 10 micromolar, in 96 well plates, in 50 ul of Hams F12 media for 30 minutes. Cells were plated at 17500 cells per well 1 day before running the assay. All compounds were also screened against the parental CHO cells. cAMP was measured using the cAMP dynamic kit from Cis Bio (Bedford, Mass.), according to the manufacturer's instructions. Briefly, cells were lysed and cAMP levels determined by competitive immunoassay using D2 labeled cAMP, and europium cryptate tagged anti cAMP antibody. When in close proximity, the D2 and europium cryptate undergo fluorescence resonance energy transfer (FRET), which is measured as a fluorescence ratio (665 nm/620 nm). Unlabelled cAMP in the cell lysate competed with the D2 labeled cAMP for the europium crypate labeled antibody. The resulting decrease in FRET signal corresponded to intracellular cAMP levels
# To determine percent activity for a tested compound, the FRET signal value obtained at a particular concentration are compared to the Maximal FRET signal value obtained for 5-Ethyl-2-{4-[4-(4-tetrazol-1-yl-phenoxymethyl)-thiazol-2-yl]-piperidin-1-yl}-pyrimidine. The maximal activity of 5-Ethyl-2-{4-[4-(4-tetrazol-1-yl-phenoxymethyl)-thiazol-2-yl]-piperidin-1-yl}-pyrimidine is designated as 100% activity. Typically, the concentration of 5-Ethyl-2-{4-[4-(4-tetrazol-1-yl-phenoxymethyl)-thiazol-2-yl]-piperidin-1-yl}-pyrimidine in the assay was approximately 0.1 μM. The synthesis of 5-Ethyl-2-{4-[4-(4-tetrazol-1-yl-phenoxymethyl)-thiazol-2-yl]-piperidin-1-yl}-pyrimidine is disclosed in co-owned pending U.S. patent application Ser. No. 11/964,461, herein incorporated by reference. Activities of compounds that were tested are shown in Table 1 below and are expressed as % activity at 3 μM compound compared to the maximal activity of 5-Ethyl-2-{4-[4-(4-tetrazol-1-yl-phenoxymethyl)-thiazol-2-yl]-piperidin-1-yl}-pyrimidine at 3 μM.
row,% activity at 3 μM,Compound
1,79.55%,"CCOC(=O)CCCc1cnc(N2CCC(n3ncc(COc4ccc(-n5cnnn5)nc4)n3)CC2)nc1 [Example 58, Ethyl 4-(2-(4-(4-((6-(1H-tetrazol-1-yl)pyridin-3-yloxy)methyl)-2H-1,2,3-triazol-2-yl)piperidin-1-yl)pyrimidin-5-yl)butanoate]"
2,27.86%,CCOC(=O)c1cnc(N2CCC(n3ncc(COc4ccc(-n5cnnn5)nc4)n3)CC2)nc1 [Example 60]
3,43.59%,O=C(c1cnc(N2CCC(n3ncc(COc4ccc(-n5cnnn5)nc4)n3)CC2)nc1)N1CCOCC1 [Example 61]
4,32.06%,"O=C(c1ncc(Br)cn1)N1CCC(n2ncc(COc3ccc(-n4cnnn4)nc3)n2)CC1 [Example 62, (4-(4-((6-(1H-tetrazol-1-yl)pyridin-3-yloxy)methyl)-2H-1,2,3-triazol-2-yl)piperidin-1-yl)(5-bromopyrimidin-2-yl)methanone]"
5,66.18%,"Cc1nc(-n2cncn2)ccc1OCc1cnn(C2CCN(c3ncc(C(F)(F)F)cn3)CC2)n1 [Example 64, 2-(4-(4-((2-Methyl-6-(1H-1,2,4-triazol-1-yl)pyridin-3-yloxy)methyl)-2H-1,2,3-triazol-2-yl)piperidin-1-yl)-5-(trifluoromethyl)pyrimidine]"
6,70.03%,"CCc1cnc(N2CCC(n3ncc(COc4ccc(-n5cncn5)nc4C)n3)CC2)nc1 [Example 65, 5-Ethyl-2-(4-(4-((2-methyl-6-(1H-1,2,4-triazol-1-yl)pyridin-3-yloxy)methyl)-2H-1,2,3-triazol-2-yl)piperidin-1-yl)pyrimidine]"
7,80.00%,"CCc1cnc(N2CCC(n3cc(COc4ccc(-n5cnnn5)cc4F)c(C(F)(F)F)n3)CC2)nc1 [Example 66, 5-Ethyl-2-(4-(4-((2-fluoro-4-(1H-tetrazol-1-yl)phenoxy)methyl)-3-(trifluoromethyl)-1H-pyrazol-1-yl)piperidin-1-yl)pyrimidine]"
8,57.87%,"CCc1cnc(N2CCC(n3cc(COc4ccc(S(C)(=O)=O)cc4F)c(C(F)(F)F)n3)CC2)nc1 [Example 67, 5-Ethyl-2-(4-(4-((2-fluoro-4-(methylsulfonyl)phenoxy)methyl)-3-(trifluoromethyl)-1H-pyrazol-1-yl)piperidin-1-yl)pyrimidine]"
9,74.11%,"CCc1cnc(N2CCC(n3ncc(COc4ccc(-n5cnnn5)cc4F)c3C(F)(F)F)CC2)nc1 [Example 68, 5-Ethyl-2-(4-(4-((2-fluoro-4-(1H-tetrazol-1-yl)phenoxy)methyl)-5-(trifluoromethyl)-1H-pyrazol-1-yl)piperidin-1-yl)pyrimidine]"
10,55.22%,"CC1CC(n2ncc(COc3ccc(-n4cnnn4)cc3F)n2)CCN1c1ncc(Cl)cn1 (stereo not drawn) [Example 69, 5-Chloro-2-(4-(4-((2-fluoro-4-(1H-tetrazol-1-yl)phenoxy)methyl)-2H-1,2,3-triazol-2-yl)-2-methylpiperidin-1-yl)pyrimidine]"
11,66.77%,"CC1CC(n2ncc(COc3ccc(-n4cnnn4)cc3F)n2)CCN1c1ncc(C(F)(F)F)cn1 (stereo not drawn) [Example 70, 2-(4-(4-((2-Fluoro-4-(1H-tetrazol-1-yl)phenoxy)methyl)-2H-1,2,3-triazol-2-yl)-2-methylpiperidin-1-yl)-5-(trifluoromethyl)pyrimidine]"
12,56.39%,"C=CCOC(=O)N1CCC(n2ncc(COc3ccc(-n4cnnn4)cc3F)n2)CC1 [Example 76, Allyl 4-(4-((2-fluoro-4-(1H-tetrazol-1-yl)phenoxy)methyl)-2H-1,2,3-triazol-2-yl)piperidine-1-carboxylate]"
13,69.86%,"C=CCOC(=O)N1CCC(n2ncc(COc3ccc(-n4cnnn4)nc3)n2)CC1 [Example 77, Allyl 4-(4-((6-(1H-tetrazol-1-yl)pyridin-3-yloxy)methyl)-2H-1,2,3-triazol-2-yl)piperidine-1-carboxylate]"
14,57.13%,"CCCCCc1cnc(N2CCC(n3ncc(COc4ccc(-n5cnnn5)nc4)n3)CC2)nc1 [Example 78, 2-(4-(4-((6-(1H-tetrazol-1-yl)pyridin-3-yloxy)methyl)-2H-1,2,3-triazol-2-yl)piperidin-1-yl)-5-pentylpyrimidine]"
15,77.53%,"COc1ccc(-c2cnc(N3CCC(n4ncc(COc5ccc(-n6cnnn6)nc5)n4)CC3)nc2)cc1 [Example 80, 2-(4-(4-((6-(1H-tetrazol-1-yl)pyridin-3-yloxy)methyl)-2H-1,2,3-triazol-2-yl)piperidin-1-yl)-5-(4-methoxyphenyl)pyrimidine]"
16,32.98%,"CCOC(=O)c1cnc(N2CCC(n3ncc(COc4ccc(-n5cnnn5)nc4)n3)CC2)s1 [Example 81, Ethyl 2-(4-(4-((6-(1H-tetrazol-1-yl)pyridin-3-yloxy)methyl)-2H-1,2,3-triazol-2-yl)piperidin-1-yl)thiazole-5-carboxylate]"

row,Compound,% activity at 3 μM
1,"FC(F)(F)c1cnc(N2C3CCC2CC(n2ncc(COc4ccc(-n5cnnn5)nc4)n2)C3)nc1 (stereo not drawn) [Example 71, exo-3-(4-((6-(1H-Tetrazol-1-yl)pyridin-3-yloxy)methyl)-2H-1,2,3-triazol-2-yl)-8-(5-(trifluoromethyl)pyrimidin-2-yl)-8-azabicyclo[3.2.1]octane]",70.78%

# Same assay, conditions: 3 μM compound; relative to maximal activity of 5-Ethyl-2-{4-[4-(4-tetrazol-1-yl-phenoxymethyl)-thiazol-2-yl]-piperidin-1-yl}-pyrimidine (=100%); IC-GPCR2 stably expressing CHO cells, 30 minutes; 3 µM
row,Compound,% activity at 3 μM
1,"CC(C)(C)OC(=O)N1C2CCC1CC(n1ncc(COc3ccc(-n4cnnn4)nc3)n1)C2 (stereo not drawn) [Example 72, endo-tert-Butyl 3-(4-((6-(1H-tetrazol-1-yl)pyridin-3-yloxy)methyl)-2H-1,2,3-triazol-2-yl)-8-azabicyclo[3.2.1]octane-8-carboxylate]",60.55%
2,"CC(C)(C)OC(=O)N1C2CCC1CC(n1ncc(COc3ccc(-n4cnnn4)nc3)n1)C2 (stereo not drawn) [Example 73, exo-tert-Butyl 3-(4-((6-(1H-tetrazol-1-yl)pyridin-3-yloxy)methyl)-2H-1,2,3-triazol-2-yl)-8-azabicyclo[3.2.1]octane-8-carboxylate]",84.07%
3,"Fc1cnc(N2C3CCC2CC(n2ncc(COc4ccc(-n5cnnn5)nc4)n2)C3)nc1 (stereo not drawn) [Example 74, endo-3-(4-((6-(1H-tetrazol-1-yl)pyridin-3-yloxy)methyl)-2H-1,2,3-triazol-2-yl)-8-(5-fluoropyrimidin-2-yl)-8-azabicyclo[3.2.1]octane]",61.88%
4,"Fc1cnc(N2C3CCC2CC(n2ncc(COc4ccc(-n5cnnn5)nc4)n2)C3)nc1 (stereo not drawn) [Example 75, exo-3-(4-((6-(1H-Tetrazol-1-yl)pyridin-3-yloxy)methyl)-2H-1,2,3-triazol-2-yl)-8-(5-fluoropyrimidin-2-yl)-8-azabicyclo[3.2.1]octane]",47.94%
